Assay results: publication PMC6149889, “Synthesis, Analysis, Cholinesterase-Inhibiting Activity and Molecular Modelling Studies of 3-(Dialkylamino)-2-hydroxypropyl 4-[(Alkoxy-carbonyl)amino]benzoates and Their Quaternary Ammonium Salts” (Molecules : A Journal of Synthetic Chemistry and Natural …, 2017)
Read-outs that look alike come from different tables or passages of the source.

Tests used:
AChE (electric eel) = AChE (electric eel) (Electrophorus electricus, UniProt O42275); assay: Ellman assay, 96-well, […] nm; assay type: biochemical
Chain of AChE (electric eel) (O42275 24-633): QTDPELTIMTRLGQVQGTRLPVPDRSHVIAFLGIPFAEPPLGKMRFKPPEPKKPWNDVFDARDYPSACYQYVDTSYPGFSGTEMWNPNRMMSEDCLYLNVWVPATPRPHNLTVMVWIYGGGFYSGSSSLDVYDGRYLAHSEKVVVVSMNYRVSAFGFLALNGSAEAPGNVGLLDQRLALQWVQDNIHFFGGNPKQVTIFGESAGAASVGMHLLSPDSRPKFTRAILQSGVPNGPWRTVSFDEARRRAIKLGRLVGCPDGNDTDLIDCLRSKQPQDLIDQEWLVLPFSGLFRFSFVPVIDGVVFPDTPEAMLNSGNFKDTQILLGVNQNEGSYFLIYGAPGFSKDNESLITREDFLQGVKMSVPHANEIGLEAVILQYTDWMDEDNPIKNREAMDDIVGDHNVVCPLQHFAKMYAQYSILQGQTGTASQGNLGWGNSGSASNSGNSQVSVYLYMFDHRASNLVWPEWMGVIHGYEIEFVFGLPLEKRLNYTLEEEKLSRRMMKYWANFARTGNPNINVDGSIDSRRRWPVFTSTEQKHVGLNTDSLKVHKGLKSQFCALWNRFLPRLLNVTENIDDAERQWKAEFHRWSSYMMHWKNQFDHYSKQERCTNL

BuChE (equine serum) = biological target: T1, BuChE (equine serum) (Equus caballus, UniProt P81908); assay: Ellman assay, 96-well, […] nm; assay type: biochemical
T1 construct: gene BCHE
T1 sequence (P81908 whole entry): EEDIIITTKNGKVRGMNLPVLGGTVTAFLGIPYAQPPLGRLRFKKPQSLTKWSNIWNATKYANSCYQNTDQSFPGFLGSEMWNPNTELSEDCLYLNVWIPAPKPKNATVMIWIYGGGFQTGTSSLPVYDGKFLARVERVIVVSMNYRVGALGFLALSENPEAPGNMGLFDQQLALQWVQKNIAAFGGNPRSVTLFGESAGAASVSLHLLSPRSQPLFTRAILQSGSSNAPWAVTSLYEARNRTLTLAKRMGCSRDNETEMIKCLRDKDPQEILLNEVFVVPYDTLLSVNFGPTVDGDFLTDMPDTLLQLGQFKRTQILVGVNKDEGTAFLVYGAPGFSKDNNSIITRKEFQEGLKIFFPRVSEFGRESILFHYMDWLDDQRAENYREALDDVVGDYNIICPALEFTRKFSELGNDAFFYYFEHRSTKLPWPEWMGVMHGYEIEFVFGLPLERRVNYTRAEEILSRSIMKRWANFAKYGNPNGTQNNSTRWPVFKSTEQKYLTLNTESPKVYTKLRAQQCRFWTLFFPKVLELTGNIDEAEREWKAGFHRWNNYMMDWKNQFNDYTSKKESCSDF

COC(=O)Nc1ccc(C(=O)OCC(O)CN(C)C)cc1 (stereo not drawn) [5a, (2-Hydroxy-3-{4-[(methoxycarbonyl)amino]benzoyloxy}propyl)dimethylammonium chloride]
IC50 (AChE (electric eel)): > 100 µM | IC50 (BuChE (equine serum)): > 100 µM

CCOC(=O)Nc1ccc(C(=O)OCC(O)CN(C)C)cc1 (stereo not drawn) [5b, (3-{4-[(ethoxycarbonyl)amino]benzoyloxy}-2-hydroxypropyl)dimethylammonium chloride]
IC50 (AChE (electric eel)): > 100 µM | IC50 (BuChE (equine serum)): > 100 µM

CCCOC(=O)Nc1ccc(C(=O)OCC(O)CN(C)C)cc1 (stereo not drawn) [5c, (2-Hydroxy-3-{4-[(propoxycarbonyl)amino]benzoyloxy}propyl)dimethylammonium chloride]
IC50 (AChE (electric eel); read-out: AChE IC50): > 100 µM | IC50 (BuChE (equine serum)): > 100 µM

CCCCOC(=O)Nc1ccc(C(=O)OCC(O)CN(C)C)cc1 (stereo not drawn) [5d, (3-{4-[(Butoxycarbonyl)amino]benzoyloxy}-2-hydroxypropyl)dimethylammonium chloride]
IC50 (AChE (electric eel); read-out: AChE IC50): > 100 µM | IC50 (BuChE (equine serum)): > 100 µM

CCN(CC)CC(O)COC(=O)c1ccc(NC(=O)OC)cc1 (stereo not drawn) [5e, Diethyl-(2-hydroxy-3-{4-[(methoxycarbonyl)amino]benzoyloxy}propyl)ammonium chloride]
IC50 (AChE (electric eel); read-out: AChE IC50): > 100 µM | IC50 (BuChE (equine serum)): > 100 µM

CCOC(=O)Nc1ccc(C(=O)OCC(O)CN(CC)CC)cc1 (stereo not drawn) [5f, (3-{4-[(Ethoxycarbonyl)amino]benzoyloxy}-2-hydroxypropyl)diethylammonium chloride]
IC50 (AChE (electric eel)): > 100 µM | IC50 (BuChE (equine serum)): > 100 µM

COC(=O)Nc1ccc(C(=O)OCC(O)C[N+](C)(C)C)cc1 (stereo not drawn) [6a, (2-Hydroxy-3-{4-[(methoxycarbonyl)amino]benzoyloxy}propyl)trimethylammonium iodide]
IC50 (AChE (electric eel)): > 100 µM | IC50 (BuChE (equine serum)): > 100 µM

CC[N+](C)(C)CC(O)COC(=O)c1ccc(NC(=O)OC)cc1 (stereo not drawn) [6b, Ethyl(2-hydroxy-3-{4-[(methoxycarbonyl)amino]benzoyloxy}propyl)dimethylammonium iodide]
IC50 (AChE (electric eel); read-out: AChE IC50): 100 µM | IC50 (BuChE (equine serum)): > 100 µM

COC(=O)Nc1ccc(C(=O)OCC(O)C[N+](C)(C)C(C)C)cc1 (stereo not drawn) [6c, (2-Hydroxy-3-{4-[(methoxycarbonyl)amino]benzoyloxy}propyl)dimethyl(propan-2-yl)ammonium iodide]
IC50 (AChE (electric eel)): > 100 µM | IC50 (BuChE (equine serum)): > 100 µM

CCOC(=O)Nc1ccc(C(=O)OCC(O)C[N+](C)(C)C)cc1 (stereo not drawn) [6d, (3-{4-[(Ethoxycarbonyl)amino]benzoyloxy}-2-hydroxypropyl)trimethylammonium iodide]
IC50 (AChE (electric eel); read-out: AChE IC50): > 100 µM | IC50 (BuChE (equine serum)): > 100 µM

CCOC(=O)Nc1ccc(C(=O)OCC(O)C[N+](C)(C)CC)cc1 (stereo not drawn) [6e, (3-{4-[(Ethoxycarbonyl)amino]benzoyloxy}-2-hydroxypropyl)(ethyl)dimethylammonium iodide]
IC50 (AChE (electric eel)): > 100 µM | IC50 (BuChE (equine serum)): > 100 µM

CCOC(=O)Nc1ccc(C(=O)OCC(O)C[N+](C)(CC)CC)cc1 (stereo not drawn) [6f, (3-{4-[(Ethoxycarbonyl)amino]benzoyloxy}-2-hydroxypropyl)diethylmethylammonium iodide]
IC50 (AChE (electric eel); read-out: AChE IC50): 56 µM | IC50 (BuChE (equine serum)): > 100 µM

CCCOC(=O)Nc1ccc(C(=O)OCC(O)C[N+](C)(C)C)cc1 (stereo not drawn) [6g, (2-Hydroxy-3-{4-[(propoxycarbonyl)amino]benzoyloxy}propyl)trimethylammonium iodide]
IC50 (AChE (electric eel); read-out: AChE IC50): > 100 µM | IC50 (BuChE (equine serum)): > 100 µM

CCCOC(=O)Nc1ccc(C(=O)OCC(O)C[N+](C)(CC)CC)cc1 (stereo not drawn) [6h, Diethyl (2-hydroxy-3-{4-[(propoxycarbonyl)amino]benzoyloxy}propyl)methylammonium iodide]
IC50 (AChE (electric eel)): 58 µM | IC50 (BuChE (equine serum)): > 100 µM

CCCCOC(=O)Nc1ccc(C(=O)OCC(O)C[N+](C)(C)C)cc1 (stereo not drawn) [6i, (3-{4-[(Butoxycarbonyl)amino]benzoyloxy}-2-hydroxypropyl)trimethylammonium iodide]
IC50 (AChE (electric eel)): > 100 µM | IC50 (BuChE (equine serum)): > 100 µM
